Consider three compounds from ChEMBL document CHEMBL5724914, “Linking interpersonal differences in gut microbiota composition and drug biotransformation activity” (2024).

Data set [1] can be described thus: The drug is tested on Z-023 corresponding to metagenome with ENA study accession number: PRJEB37062 and ENA sample accession number: ERS12561822 for biotransformation under anaerobic condition. The drug concentrations were measured over 9 timepoints collected between 0 and 24 hours of incubation by liquid-chromatography-coupled mass spectrometry (LC–MS). Conditions: 2 µM.

Data set [2] is described as follows: The drug is tested on Z-013 corresponding to rabbit gut metagenome with ENA study accession number: PRJEB37062 and ENA sample accession number: ERS12561813 for biotransformation under anaerobic condition. The drug concentrations were measured over 9 timepoints collected between 0 and 24 hours of incubation by liquid-chromatography-coupled mass spectrometry (LC–MS). The following applies: 2 µM.

Data set [3] is described as follows: The drug is tested on Z-010 corresponding to metagenome with ENA study accession number: PRJEB37062 and ENA sample accession number: ERS12561810 for biotransformation under anaerobic condition. The drug concentrations were measured over 9 timepoints collected between 0 and 24 hours of incubation by liquid-chromatography-coupled mass spectrometry (LC–MS). Conditions: 2 µM.

Data set [4] is described as follows: The drug is tested on Z-008 corresponding to metagenome with ENA study accession number: PRJEB37062 and ENA sample accession number: ERS12561808 for biotransformation under anaerobic condition. The drug concentrations were measured over 9 timepoints collected between 0 and 24 hours of incubation by liquid-chromatography-coupled mass spectrometry (LC–MS). Conditions: 2 µM.

A short description of data set [5]: The drug is tested on WLS-310 corresponding to human gut metagenome with ENA study accession number: PRJEB37062 and ENA sample accession number: ERS12561785 for biotransformation under anaerobic condition. The drug concentrations were measured over 9 timepoints collected between 0 and 24 hours of incubation by liquid-chromatography-coupled mass spectrometry (LC–MS). Conditions: 2 µM.

Data set [6] is described as follows: The drug is tested on WLS-090 corresponding to human gut metagenome with ENA study accession number: PRJEB37062 and ENA sample accession number: ERS12561753 for biotransformation under anaerobic condition. The drug concentrations were measured over 9 timepoints collected between 0 and 24 hours of incubation by liquid-chromatography-coupled mass spectrometry (LC–MS). Conditions: 2 µM.

Data set [7] in a line: The drug is tested on WLS-039 corresponding to human gut metagenome with ENA study accession number: PRJEB37062 and ENA sample accession number: ERS12561746 for biotransformation under anaerobic condition. The drug concentrations were measured over 9 timepoints collected between 0 and 24 hours of incubation by liquid-chromatography-coupled mass spectrometry (LC–MS). The following applies: 2 µM.

Data set [8] in a line: The drug is tested on WLS-038 corresponding to human gut metagenome with ENA study accession number: PRJEB37062 and ENA sample accession number: ERS12561745 for biotransformation under anaerobic condition. The drug concentrations were measured over 9 timepoints collected between 0 and 24 hours of incubation by liquid-chromatography-coupled mass spectrometry (LC–MS). Conditions: 2 µM.

Data set [9] is described as follows: The drug is tested on WLS-007 corresponding to human gut metagenome with ENA study accession number: PRJEB37062 and ENA sample accession number: ERS12561742 for biotransformation under anaerobic condition. The drug concentrations were measured over 9 timepoints collected between 0 and 24 hours of incubation by liquid-chromatography-coupled mass spectrometry (LC–MS). The following applies: 2 µM.

The conditions of data set [10]: human gut metagenome, 24 h, 2 µM.
For data set [11] the following is noted: human gut metagenome, 24 h, 2 µM. The source holds these as a separate data set.
For data set [12] the following is noted: human gut metagenome, 24 h, 2 µM. This is another data set of the same source.
For data set [13] the following is noted: human gut metagenome, 24 h, 2 µM. The source holds these as a separate data set.
For data set [14] the following is noted: human gut metagenome, 24 h, 2 µM. The source holds these as a separate data set.
The conditions of data set [15]: human gut metagenome, 24 h, 2 µM. The source holds these as a separate data set.
The conditions of data set [16]: human gut metagenome, 24 h, 2 µM. The source holds these as a separate data set.
For data set [17] the following is noted: human gut metagenome, 24 h, 2 µM. This is another data set of the same source.
The conditions of data set [18]: human gut metagenome, 24 h, 2 µM. This is another data set of the same source.
For data set [19] the following is noted: human gut metagenome, 24 h, 2 µM. This is another data set of the same source.
For data set [20] the following is noted: human gut metagenome, 24 h, 2 µM. This is another data set of the same source.
Further: call rule not given here.

Turning to `CCOC(=O)[C@H](CCc1ccccc1)N[C@@H](C)C(=O)N1Cc2ccccc2C[C@H]1C(=O)O`, the “Bacterial Biotransformation” value was “Compound metabolized” in [1]; “Compound NOT metabolized” in data set [2]; “Compound NOT metabolized” in data set [3]; “Compound NOT metabolized” in data set [4]; “Compound metabolized” in [5]; “Compound metabolized” in [6]. The “Bacterial Biotransformation” value in data set [7] is “Compound metabolized”; in [8] it was “Compound metabolized”; in data set [9], “Compound metabolized”; in [10] it was “Compound NOT metabolized”; in data set [11] it was “Compound NOT metabolized”; in data set [12], “Compound metabolized”. The “Bacterial Biotransformation” value in data set [13], in data set [14], in data set [15], in data set [16], in data set [17] and in data set [18] was “Compound metabolized” each time. The “Bacterial Biotransformation” value in data set [19] and in data set [20] was “Compound metabolized” throughout.
With `CC[C@H](C)C(=O)O[C@H]1CCC=C2C=C[C@H](C)[C@H](CC[C@@H]3C[C@@H](O)CC(=O)O3)[C@H]21` [MEVASTATIN], the “Bacterial Biotransformation” value was “Compound metabolized” in data set [1]; “Compound NOT metabolized” in [2]; “Compound NOT metabolized” in data set [3]; “Compound NOT metabolized” in data set [4]; “Compound metabolized” in data set [5]; “Compound metabolized” in data set [6]. In addition, the “Bacterial Biotransformation” value in data set [7] was “Compound metabolized”; in [8] it was “Compound metabolized”; in data set [9], “Compound NOT metabolized”; in data set [10], “Compound NOT metabolized”; in data set [11] it was “Compound NOT metabolized”; in data set [12] it was “Compound NOT metabolized”. In addition, the “Bacterial Biotransformation” value in data set [13] is on record as “Compound NOT metabolized”; in [14], “Compound metabolized”; in [15], “Compound metabolized”; in [16] it was “Compound NOT metabolized”; in data set [17], “Compound metabolized”; in data set [18], “Compound metabolized”. Also, the results for the “Bacterial Biotransformation” value in data set [19] and in [20] were “Compound NOT metabolized” and “Compound metabolized”, respectively.
In the case of `CN(C)CCC=C1c2ccccc2COc2ccccc21` [DOXEPIN], the “Bacterial Biotransformation” value was “Compound metabolized” in [1]; “Compound NOT metabolized” in data set [2]; “Compound NOT metabolized” in data set [3]; “Compound NOT metabolized” in data set [4]; “Compound metabolized” in data set [5]; “Compound metabolized” in data set [6]. Further, the “Bacterial Biotransformation” value in data set [7] is “Compound metabolized”; in [8] it was “Compound NOT metabolized”; in [9] it was “Compound metabolized”; in data set [10], “Compound NOT metabolized”; in data set [11], “Compound NOT metabolized”; in data set [12], “Compound NOT metabolized”. In addition, the “Bacterial Biotransformation” value in [13] was “Compound NOT metabolized”; in [14], “Compound metabolized”; in [15], “Compound metabolized”; in [16], “Compound metabolized”; in [17], “Compound metabolized”; in data set [18], “Compound NOT metabolized”. For the same compound, the “Bacterial Biotransformation” value is recorded as “Compound NOT metabolized” in data set [19] and “Compound metabolized” in data set [20].
